Data set [1] deals with T1, CCR3 receptor (UniProt P51677).
T1 sequence (P51677 1-355): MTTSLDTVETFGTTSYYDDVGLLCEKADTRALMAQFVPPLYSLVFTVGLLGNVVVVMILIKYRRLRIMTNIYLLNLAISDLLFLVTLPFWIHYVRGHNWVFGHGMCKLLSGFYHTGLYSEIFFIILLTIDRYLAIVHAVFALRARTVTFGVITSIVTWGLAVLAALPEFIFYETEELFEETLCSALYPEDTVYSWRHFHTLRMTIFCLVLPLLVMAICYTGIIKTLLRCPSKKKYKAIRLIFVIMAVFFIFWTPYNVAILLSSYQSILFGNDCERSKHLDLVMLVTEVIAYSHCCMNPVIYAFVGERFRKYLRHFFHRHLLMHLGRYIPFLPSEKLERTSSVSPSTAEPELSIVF
Description: CCR3 Receptor Binding Assay ([125I]-labeled human eotaxin/CCL11 displacement on cells). The following applies: Free (free form of the compound). The procedure:
Cells were washed once with PBS and resuspended in a binding buffer (25 mM HEPES pH 7.6, 5 mM MgCl2, 1 mM CaCl2, 0.5% BSA, 0.1% NaN3), […] of cell suspension (2×10^5 cells/well) and 0.1 nM [^125I]-labeled human eotaxin/CCL11 (2000 Ci/mmol specific activity) were mixed in a 96-well U-bottom polypropylene plate, and incubated for 60 min at room temperature for the binding reaction. The cell suspension was then transferred to a filtration plate (#MAFB, Millipore), and washed 3 times with the binding buffer containing 0.5 M NaCl, scintillant added, and the radioactivity was counted on a TopCount (Packard). For the determination of non-specific binding, the cell suspension and [^125I]-labeled human eotaxin/CCL11 were incubated in the presence of 500 nM of unlabeled human eotaxin/CCL11. See, lino et al., “Molecular cloning and functional characterization of cynomolgus monkey (Macaca fascicularis) CC chemokine receptor, CCR3,” Cytokine 2002, 19, 276-286.

Structures are written as SMILES. Structures can show the parent of a compound that is named as a salt. Bounds are passed on as bounds.

The term Ki denotes the dissociation constant of the complex between target and ligand, obtained from inhibition or displacement. A higher Ki goes with lower affinity. As usually defined, the melting point is the temperature, or range, at which the solid turns liquid.

`Cc1ccc(C)c(Oc2ccc([N+](=O)[O-])cc2S(=O)(=O)N2CCSCC2)c1` [Compound 117, 4-(2-(2,5-Dimethylphenoxy)-5-nitrophenylsulfonyl)thiomorpholine] had a melting point of 144 to 147 °C. Moreover, in data set [1], the Ki is over 5 nM. `O=[N+]([O-])c1ccc(Sc2cc(Cl)ccc2Cl)c(S(=O)(=O)N2CCOCC2)c1` [Compound 110, 4-(2-(2,5-Dichlorophenylthio)-5-nitrophenylsulfonyl)morpholine] had a melting point of 182 to 186 °C. The Ki in data set [1] was over 5 nM.

As to `O=[N+]([O-])c1ccc(Oc2cc(Cl)ccc2Cl)c(S(=O)(=O)N2CCSCC2)c1` [Compound 115, 4-(2-(2,5-Dichlorophenoxy)-5-nitrophenylsulfonyl)thiomorpholine], the melting point is 191 to 194 °C. This compound returned a Ki in data set [1] of over 5 nM. In turn, `CC1CN(S(=O)(=O)c2cc([N+](=O)[O-])ccc2Oc2cc(Cl)ccc2Cl)CC(C)N1` (stereo not shown) [Compound 104, 1-(2-(2,5-Dichlorophenoxy)-5-nitrophenylsulfonyl)-3,5-dimethylpiperazine] had a melting point of 161 to 163 °C. Moreover, the Ki in data set [1] fell in the range of 10 to 25 nM. Taken in the same sequence, the figures for `Cc1ccc(C)c(Oc2ccc([N+](=O)[O-])cc2S(=O)(=O)N2CCOCC2)c1` [Compound 113, 4-(2-(2,5-Dimethylphenoxy)-5-nitrophenylsulfonyl)morpholine] were 124 to 127 °C and over 5 nM. In turn, `O=[N+]([O-])c1ccc(Oc2cc(Cl)ccc2Cl)c(S(=O)(=O)N2CCOCC2)c1` [Compound 111, 4-(2-(2,5-Dichlorophenoxy)-5-nitrophenylsulfonyl)morpholine] registered a melting point of 168 to 170 °C. Besides, in data set [1], the Ki was over 5 nM. In turn, `O=[N+]([O-])c1ccc(Sc2cc(Cl)ccc2Cl)c(S(=O)(=O)N2CCNCC2)c1` [Compound 123, 1-(2-(2,5-Dichlorophenylthio)-5-nitrophenylsulfonyl)piperazine] displayed a melting point of 150 to 153 °C. Moreover, in data set [1], the Ki was 10 to 25 nM. As for `Cc1ccc(C)c(Sc2ccc([N+](=O)[O-])cc2S(=O)(=O)N2CCNCC2)c1` [Compound 122, 1-(2-(2,5-Dimethylphenylthio)-5-nitrophenylsulfonyl)piperazine], the melting point was 142 to 145 °C. Moreover, the Ki in data set [1] was 100 to 500 nM. The compound `O=[N+]([O-])c1ccc(Sc2cc(Cl)ccc2Cl)c(S(=O)(=O)N2CCSCC2)c1` [Compound 114, 4-(2-(2,5-Dichlorophenylthio)-5-nitrophenylsulfonyl)thiomorpholine] returned a melting point of 189 to 191 °C. Besides, the Ki in data set [1] was over 5 nM.

`N#Cc1ccc(Oc2cc(F)ccc2F)c(S(=O)(=O)N2CCOCC2)c1` [Compound 58, 4-(2,5-Difluorophenoxy)-3-(morpholinosulfonyl)benzonitrile] displayed a melting point of 165 to 168 °C. The Ki in data set [1] was over 5 nM. Taken in the same sequence, the figures for `Cc1ccc(C)c(Sc2ccc([N+](=O)[O-])cc2S(=O)(=O)N2CCSCC2)c1` [Compound 116, 4-(2-(2,5-Dimethylphenylthio)-5-nitrophenylsulfonyl)thiomorpholine] were 130 to 137 °C and over 5 nM. `N#Cc1ccc(Sc2cc(Cl)ccc2Cl)c(S(=O)(=O)N2CCOCC2)c1` [Compound 82, 4-(2,5-Dichlorophenylthio)-3-(morpholinosulfonyl)benzonitrile]: the melting point fell in the range of 216 to 219 °C. The Ki in data set [1] fell in the range of 100 to 500 nM.

In turn, `CC1CN(S(=O)(=O)c2cc(C#N)ccc2Oc2cc(F)ccc2F)CC(C)N1` (stereo not shown) (as salt: hydrochloride) [Compound 53, 4-(2,5-Difluorophenoxy)-3-(3,5-dimethylpiperazin-1-ylsulfonyl)benzonitrile] registered a melting point of 157 to 159 °C. As to `Cc1ccc(C)c(Sc2ccc([N+](=O)[O-])cc2S(=O)(=O)N2CCOCC2)c1` [Compound 112, 4-(2-(2,5-Dimethylphenylthio)-5-nitrophenylsulfonyl)morpholine], the melting point fell in the range of 141 to 143 °C. The inhibition constant (Ki) in data set [1] was over 5 nM. Compound `CC(C)N1CCN(S(=O)(=O)c2cc(C#N)ccc2Oc2cc(F)ccc2F)CC1` (as salt: hydrochloride) [Compound 54, 4-(2,5-Difluorophenoxy)-3-(4-isopropylpiperazin-1-ylsulfonyl)benzonitrile] gave a melting point of 179 to 182 °C.

Values taken from US8669247B2, “2,5-disubstituted arylsulfonamide CCR3 antagonists” (Axikin Pharmaceuticals, Inc., priority 2009, dated 2014).
